The text below walks through data of patent US5167948A, “Diagnostic or radiotherapeutic composition comprising a hydrogen containing compound” (priority 1987, dated 1992).

For series [1] the following is noted: tracer amounts, man; in words; cited from earlier work.
Series [2] can be described thus: Determination of the relaxation of the water protons (relaxation time T1, inversion recovery method). In kind it is physicochemical. Conditions: for T1: 2 millimolar solution in water, 89.55 MHz, room temp. The procedure:
Determination of the relaxation of the water protons by adding paramagnetic deuterated ferricinium compounds compared to the corresponding non-deuterated compounds. The following compounds are tested:
From the above compounds 2 millimolar solutions in water are prepared. Of these solutions the relaxation time T1 is determined at 89.55 MHz on a JEOL FX-90Q NMR spectrometer using the inversion recovery method (room temp.). In the experiments comprising in addition deuterium oxide, D2 O is added in a quantity of 1.0 mMole to a volume of 100 ml of the solution.

Series [3] in a line: 103Ru-concentration in organs of rats after injection of Rc-amphetamine derivatives. Conditions: for 103Ru-concentration, brains / 103Ru-concentration, lungs / 103Ru-concentration, suprarenal glands: 0.5 μmol/kg; for D/H, brains / D/H, lungs / D/H, suprarenal glands: quotient deuterated / non-deuterated. In kind it is in vivo. The procedure: The above compounds are intravenously administered in doses of approx. 0.5 μmol/kg to two groups of each 4 rats. The compounds can be represented by the following formula: [drawing 7] After certain periods of time between 0 and 90 minutes after injection test animals are sacrificed and the ^103 Ru-concentration in the brains is determined. The results are graphically recorded in FIG. 1: the ^103 Ru-concentration (C) in the brains i.c. % dose/% body weight (% d/% wt), is plotted against the time (t) in min.
In the same way as described in Example X the effect of deuteration of N-methyl- and N,N-dimethylderivatives of ^103 Ru-labelled ruthenocene-amphetamine is investigated in vivo: groups of 3 or 4 rats as test animals; dose: 0.5 μmol/kg. After 15 or 20 minutes the ^103 Ru-concentration is determined in various organs of the rats, viz. brains, lungs and suprarenal glands, and presented in table B for the compounds tested. As will be apparent from the D/H value, i.e. the quotient of the ^103 Ru concentration of the deuterated compound and that of the non-deuterated compound, in all experiments except one (free amine-lungs) the affinity of the deuterated compounds to the organs is increased compared to the non-deuterated compounds.

Setting [4] is: + D2O, 1.0 mMole added to 100 ml of the solution.

`[2H]C([2H])([2H])CC(=O)C(CC(C)N(C)C)(c1ccccc1)c1ccccc1` (stereo not drawn) [methadone-d3]: the “metabolic behaviour compared with the unmodified drug” value in series [1] is “substantially identical metabolic behaviour”.

For `[2H]O[2H]` [D2 O, deuterium oxide], the “effect of D2O on relaxation time” value in series [2] (in words, not bound to the complex) is on record as “does not change the relaxation time significantly”.

[(C5 D5)2 Fe]^+ BF4^- [(d)] came in with a T1 in series [2] of 1.04 s.

In the case of `[103Ru+2].[2H]C([c-]1cccc1)C([2H])(C)N(C([2H])([2H])[2H])C([2H])([2H])[2H].c1cc[cH-]c1` (stereo not drawn) [--N,N-dimethyl D], in series [3] (15 min.), the “103Ru-concentration, brains” value worked out at 3.33 % dosis/% body weight; the “103Ru-concentration, lungs” value is listed as 10.5 % dosis/% body weight; the “103Ru-concentration, suprarenal glands” value was determined as 11.9 % dosis/% body weight; the “D/H, brains” value was 1.45. Besides, in series [3] (15 min.), the “D/H, lungs” value came out at 1.32 and the “D/H, suprarenal glands” value worked out at 1.57.

The compound [(CH3 -C5 D4)2 Fe]^+ BF4^- [(b)] gave a T1 in series [2] of 1.23 s.

With `F[B-](F)(F)F.[Fe+3].c1cc[cH-]c1.c1cc[cH-]c1` [(c), [(C5 H5)2 Fe]^+ BF4^-], the T1 worked out at 1.65 s in series [2] and 1.64 s in series [2] (setting [4]).

In the case of [(CH3 -C5 H4)2 Fe]^+ BF4^- [(a)], the T1 in series [2] was 1.62 s; in series [2] (setting [4]) it was 1.60 s.

Consider `[2H]C([c-]1cccc1)C([2H])(C)N.[Ru+2].c1cc[cH-]c1` (stereo not drawn) [--NH2 D, ^103 Ru-1-ruthenocenyl-2-aminopropane-1,2-d2], for which, in series [3] (20 min.), the “103Ru-concentration, brains” value is given as 2.56 % dosis/% body weight; the “103Ru-concentration, lungs” value was determined as 10.5 % dosis/% body weight; the “103Ru-concentration, suprarenal glands” value is 6.2 % dosis/% body weight; the “D/H, brains” value was found to be 1.31. Further, in series [3] (20 min.), the “D/H, lungs” value stood at 0.85 and the “D/H, suprarenal glands” value was 1.29. For the same compound, the “D/H, lungs” value in series [3] (20 min., listed as free amine) is recorded as “decreased value”.

`[103Ru+2].[2H]C([c-]1cccc1)C([2H])(C)NC([2H])([2H])[2H].c1cc[cH-]c1` (stereo not drawn) [--N-methyl D]: in series [3] (15 min.), the “103Ru-concentration, brains” value worked out at 2.56 % dosis/% body weight; the “103Ru-concentration, lungs” value is on record as 11.3 % dosis/% body weight; the “103Ru-concentration, suprarenal glands” value stood at 8.3 % dosis/% body weight; the “D/H, brains” value stood at 1.12. Further, in series [3] (15 min.), the “D/H, lungs” value amounted to 1.26 and the “D/H, suprarenal glands” value was determined as 1.77.
